# Experimental data as given in ChEMBL document CHEMBL1145652, “Plant anticancer agents. XXVI. Constituents of Peddiea fischeri” (1983).
# The source made the active and inactive calls. The calls are words filed in the database; no cut-off is given here.
# Columns and labels:
# [1] = test system: P388; test: In vivo antitumor activity against mouse P388 cells at 2.2 to 17.5 mg/kg; format: functional, organism-based
# [2] = test system: P388; test: In vivo antitumor activity against mouse P388 cells at 1.4 to 11.4 mg/kg; format: functional, organism-based
# [3] = test system: P388; test: Cytotoxicity against mouse P388 cells; format: functional; details: read-out: ED50 (the source's name)
SMILES,Activity [1],Activity [2],EC50 [3] [µg/mL]
COc1cc2cc(Oc3ccc4ccc(=O)oc4c3)c(=O)oc2cc1O [DAPHNORETIN],inactive,inactive,2.2
O=c1ccc2ccc(O)cc2o1 [UMBELLIFERONE],inactive,inactive,0.4
"COC1=CC(=O)C=C(OC)C1=O [2,6-DIMETHOXYQUINONE]",,,0.0015
